Experimental data: paper PMC5979531, “Structural Requirements of Alkylglyceryl-L-Ascorbic Acid Derivatives for Melanogenesis Inhibitory Activity” (International Journal of Molecular Sciences, 2018)

Legend:
B16 melanoma 4A5 cells = experiment: Theophylline-stimulated melanogenesis inhibition (melanin content); format: cell-based, murine; conditions: 72 h; for inhibition at 3 µM / inhibition at 10 µM / inhibition at 30 µM / inhibition at 100 µM / IC50 / inhibition at 300 µM / inhibition at 1000 µM / inhibition at 3000 µM: Mus musculus; for inhibition at 3 µM / inhibition at 10 µM / inhibition at 30 µM / inhibition at 100 µM / inhibition at 300 µM / inhibition at 1000 µM / inhibition at 3000 µM / Inhibition (%) of melanogenesis: theophylline-stimulated B16 4A5 cells; for IC50: theophylline (1 mM)-stimulated B16 melanoma 4A5 cells; for inhibition at 3000 µM / Inhibition (%) of melanogenesis: 3000 µM
Description: (§1) The effects on theophylline-stimulated melanogenesis and viability of B16 melanoma 4A5 cells were examined according to previously described protocols. Briefly, murine B16 melanoma 4A5 cells were seeded into 48-well plates in DMEM. After 24 h of culture, a test compound and theophylline (1 mM) were added and incubated for 72 h. The melanin content and cell viability were then measured. IC50 values were determined graphically.
Inhibition (%) was calculated using the following formula, where A and B indicate the optical density of the vehicle- and test compound-treated groups, respectively, and C indicates cell viability (%) (see below): Inhibition (%) = [(A − B)/A]/(C/100) × 100.

[1] = Cell viability of B16 melanoma 4A5 cells; format: cell-based, murine; conditions: mouse, B16 4A5 cells
Description: as §1

tyrosinase from mushroom = experiment: Mushroom tyrosinase activity; format: biochemical
Description: Tyrosinase activities using L-tyrosine or L-DOPA as a substrate were determined according to the protocols described previously. Briefly, samples, L-tyrosine (2.5 mM, or L-DOPA, 3.0 mM), mushroom tyrosinase (46 units/mL), and phosphate buffer were mixed in a 96-well plate and incubated at 25 °C. (L-tyrosine; 30 min, L-DOPA; 5 min). The absorbance was then measured at 492 nm.

| SMILES | IC50 (B16 melanoma 4A5 cells) [µM] | Inhibition (%) of mushroom tyrosinase (tyrosinase from mushroom; Substrate: L-DOPA, 30 µM) [%] | Inhibition (%) of mushroom tyrosinase (tyrosinase from mushroom; Substrate: L-DOPA, 100 µM) [%] | Inhibition (%) of mushroom tyrosinase (tyrosinase from mushroom; Substrate: L-Tyrosine, 30 µM) [%] | Inhibition (%) of mushroom tyrosinase (tyrosinase from mushroom; Substrate: L-Tyrosine, 100 µM) [%] | inhibition at 3 µM (B16 melanoma 4A5 cells) [%] | inhibition at 10 µM (B16 melanoma 4A5 cells) [%] | inhibition at 30 µM (B16 melanoma 4A5 cells) [%] | inhibition at 100 µM (B16 melanoma 4A5 cells) [%] | viability at 72 h, 3 µM [1] [%] | viability at 72 h, 10 µM [1] [%] | viability at 72 h, 30 µM [1] [%] | viability at 72 h, 100 µM [1] [%] | inhibition at 300 µM (B16 melanoma 4A5 cells) [%] | inhibition at 1000 µM (B16 melanoma 4A5 cells) [%] | inhibition at 3000 µM (B16 melanoma 4A5 cells) [%] | viability at 72 h, 300 µM [1] [%] | viability at 72 h, 1000 µM [1] [%] | viability at 72 h, 3000 µM [1] [%] | Inhibition (%) of melanogenesis (B16 melanoma 4A5 cells) |
| --- | --- | --- | --- | --- | --- | --- | --- | --- | --- | --- | --- | --- | --- | --- | --- | --- | --- | --- | --- | --- |
| CCOC1=C(OCC(O)CO)C(=O)O[C@@H]1[C@@H](O)CO (some centres unmarked) [compound 16, 2-O-(2,3-dihydroxypropyl)-3-O-ethyl-AsA] | > 3000 |  |  |  |  |  |  |  | -4.2 ± 2.3 |  |  |  | 105 | -5.4 ± 1.5 | 12.1 ± 2.2 | 42 ± 1.4 | 95.9 | 95.9 | 84 |  |
| O=C1O[C@H]([C@@H](O)CO)C(O)=C1O[C@H]1O[C@H](CO)[C@@H](O)[C@H](O)[C@H]1O [2-O-α-D-Glucopyranosyl-AsA, reference compound] | > 3000 |  |  |  |  |  |  |  |  |  |  |  |  |  | -8.9 ± 2.7 | 15 ± 3.5 |  | 107 | 108 | significantly inhibit melanogenesis |
| CCCOC1=C(OCC(O)CO)C(=O)O[C@@H]1[C@@H](O)CO (some centres unmarked) [compound 17, 2-O-(2,3-dihydroxypropyl)-3-O-propyl-AsA] | > 3000 |  |  |  |  |  |  |  | -5.9 ± 3.3 |  |  |  | 98.4 | -3.9 ± 4.1 | 1.3 ± 4.2 | 23.2 ± 5.6 | 95.6 | 92 | 82.9 |  |
| O=C1O[C@H]([C@@H](O)CO)C(OCC(O)CO)=C1O (some centres unmarked) [compound 1, 3-O-(2,3-dihydroxypropyl)-AsA] | > 3000 |  |  |  |  |  |  |  | -11.8 ± 1.9 |  |  |  | 100 | -10.7 ± 1.1 | -5 ± 2.9 | 0.5 ± 2.5 | 96.8 | 100 | 108 |  |
| CCOC1=C(OCC(O)CO)[C@@H]([C@@H](O)CO)OC1=O (some centres unmarked) [compound 2, 3-O-(2,3-dihydroxypropyl)-2-O-ethyl-AsA] | > 3000 |  |  |  |  |  |  |  | -28.1 ± 3.2 |  |  |  | 101 | -2.8 ± 3.6 | -8.9 ± 2 | 40.4 ± 8.6 | 99.7 | 101 | 104 |  |
| O=C1O[C@H]([C@@H](O)CO)C(O)=C1OP(=O)(O)O [Magnesium L-ascorbyl-2-phosphate, reference compound] | > 3000 |  |  |  |  |  |  |  |  |  |  |  |  |  | 2.1 ± 4.1 | 14.5 ± 1.3 |  | 126 | 92.8 | significantly inhibit melanogenesis |
| O=C1O[C@H]([C@@H](O)CO)C(O)=C1OCC(O)CO (some centres unmarked) [compound 15, 2-O-(2,3-dihydroxypropyl)-AsA] | > 3000 |  |  |  |  |  |  |  | -9.7 ± 1.2 |  |  |  | 101 | -4.8 ± 1 | -2.3 ± 1.7 | -6.1 ± 2.7 | 102 | 102 | 107 |  |
| O=C1O[C@H]([C@H](O)CO)C(O)=C1O [Erythrobic acid, reference compound] |  |  |  |  |  |  |  |  | -22.9 ± 6.5 |  |  |  | 98.7 | -10.6 ± 4.8 | 75.8 ± 4.2 | 92.6 ± 15.3 | 94.8 | 44.5 | 29.8 |  |
| CCCOC1=C(OCC(O)CO)[C@@H]([C@@H](O)CO)OC1=O (some centres unmarked) [compound 3, 3-O-(2,3-dihydroxypropyl)-2-O-propyl-AsA] | > 3000 |  |  |  |  |  |  |  | -2.1 ± 5.3 |  |  |  | 102 | 8.2 ± 3.2 | 2.5 ± 7.9 | 35.9 ± 3.4 | 98.2 | 94.5 | 95 |  |

More lines, main results first:

| IC50 (B16 melanoma 4A5 cells) [µM] | Inhibition (%) of mushroom tyrosinase (tyrosinase from mushroom; Substrate: L-DOPA, 30 µM) [%] | Inhibition (%) of mushroom tyrosinase (tyrosinase from mushroom; Substrate: L-DOPA, 100 µM) [%] | Inhibition (%) of mushroom tyrosinase (tyrosinase from mushroom; Substrate: L-Tyrosine, 30 µM) [%] | Inhibition (%) of mushroom tyrosinase (tyrosinase from mushroom; Substrate: L-Tyrosine, 100 µM) [%] | SMILES | inhibition at 3 µM (B16 melanoma 4A5 cells) [%] | inhibition at 10 µM (B16 melanoma 4A5 cells) [%] | inhibition at 30 µM (B16 melanoma 4A5 cells) [%] | inhibition at 100 µM (B16 melanoma 4A5 cells) [%] | viability at 72 h, 3 µM [1] [%] | viability at 72 h, 10 µM [1] [%] | viability at 72 h, 30 µM [1] [%] | viability at 72 h, 100 µM [1] [%] | inhibition at 300 µM (B16 melanoma 4A5 cells) [%] | inhibition at 1000 µM (B16 melanoma 4A5 cells) [%] | inhibition at 3000 µM (B16 melanoma 4A5 cells) [%] | viability at 72 h, 300 µM [1] [%] | viability at 72 h, 1000 µM [1] [%] | viability at 72 h, 3000 µM [1] [%] | Inhibition (%) of melanogenesis (B16 melanoma 4A5 cells) |
| --- | --- | --- | --- | --- | --- | --- | --- | --- | --- | --- | --- | --- | --- | --- | --- | --- | --- | --- | --- | --- |
| 28.8 | 4.8 ± 6.6 | 0.9 ± 6.0 | 4.0 ± 6.1 | −1.2 ± 4.5 | CCCCCCCCCOC1=C(OCC(O)CO)[C@@H]([C@@H](O)CO)OC1=O (some centres unmarked) [compound 9, 3-O-(2,3-dihydroxypropyl)-2-O-nonyl-AsA] | 0.2 ± 4.4 | 19.1 ± 1.3 | 51.9 ± 4.6 | 91.6 ± 1.2 | 99.2 | 88.9 | 77.6 | 58.4 |  |  |  |  |  |  |  |
| 473 |  |  |  |  | CCCCOC1=C(OCC(O)CO)C(=O)O[C@@H]1[C@@H](O)CO (some centres unmarked) [compound 18, 3-O-butyl-2-O-(2,3-dihydroxypropyl)-AsA] |  |  |  | 0.2 ± 4.4 |  |  |  | 99.8 | 36.3 ± 2.8 | 68 ± 2.1 | 84.1 ± 1.4 | 89.1 | 78.1 | 70.6 |  |
| 89.1 | −0.7 ± 3.1 | 1.1 ± 4.8 | −1.7 ± 4.0 | 1.0 ± 2.4 | CCCCCCCOC1=C(OCC(O)CO)[C@@H]([C@@H](O)CO)OC1=O (some centres unmarked) [compound 7, 3-O-(2,3-dihydroxypropyl)-2-O-heptyl-AsA] | -4.2 ± 6.3 | 3.4 ± 5.2 | 20 ± 6.4 | 52.2 ± 5 | 101 | 95.4 | 91.9 | 79.7 |  |  |  |  |  |  |  |
| 2220 |  |  |  |  | CCCCOC1=C(OCC(O)CO)[C@@H]([C@@H](O)CO)OC1=O (some centres unmarked) [compound 4, 2-O-butyl-3-O-(2,3-dihydroxypropyl)-AsA] |  |  |  | -1.2 ± 0.8 |  |  |  | 94.5 | 20.8 ± 10.6 | 30.2 ± 5.1 | 58.9 ± 2.7 | 97.4 | 93.9 | 88.7 |  |
| 830 |  |  |  |  | OC[C@H]1O[C@@H](Oc2ccc(O)cc2)[C@H](O)[C@@H](O)[C@@H]1O [Arbutin, reference compound] |  |  |  | 32.2 ± 3.4 |  |  |  | 92.2 | 22.3 ± 4.3 | 63 ± 2.3 | 94 ± 2.8 | 96 | 96.2 | 106 |  |
| 283 |  |  |  |  | CCCCCOC1=C(OCC(O)CO)C(=O)O[C@@H]1[C@@H](O)CO (some centres unmarked) [compound 19, 2-O-(2,3-dihydroxypropyl)-3-O-pentyl-AsA] |  |  |  | 14 ± 4.4 |  |  |  | 86.7 | 53 ± 1.1 | 83.1 ± 1.4 | 97.1 ± 0.9 | 73.4 | 54.7 | 22.5 |  |
| 8.7 |  |  |  |  | Oc1ccc(O)cc1 [Hydroquinone, reference compound] | 37.4 ± 3.7 | 59.5 ± 3.7 | 76.3 ± 2.1 |  | 94.1 | 85.2 | 64.3 |  |  |  |  |  |  |  |  |
| 931 |  |  |  |  | CCCCCOC1=C(OCC(O)CO)[C@@H]([C@@H](O)CO)OC1=O (some centres unmarked) [compound 5, 3-O-(2,3-dihydroxypropyl)-2-O-pentyl-AsA] |  |  |  | -14 ± 9.7 |  |  |  | 118 | 29.8 ± 8.1 | 45.9 ± 1.2 | 81.9 ± 3.3 | 107 | 105 | 78.7 |  |
